DBAASP
≈ marks a conversion by molar mass, not a printed value.

Assays:
Experiment in all cases: ≥ marks a high value that may be exact or a test limit, other limits are often not marked, values filed in µg/mL are converted to µM
[1] = tested on: Bacillus subtilis KCTC 3068
Enterococcus faecalis VR = tested on: Enterococcus faecalis VR
Enterococcus faecalis = tested on: Enterococcus faecalis
Enterococcus faecium VR = tested on: Enterococcus faecium VR
Enterococcus faecium = tested on: Enterococcus faecium
[2] = tested on: Escherichia coli KCTC 1682
[3] = tested on: Pseudomonas aeruginosa KCTC 1637
[4] = tested on: Salmonella typhimurium KCTC 1926
[5] = tested on: Staphylococcus aureus KCTC 1621
Staphylococcus aureus MR = tested on: Staphylococcus aureus MR
[6] = tested on: Staphylococcus epidermidis KCTC 1917
[7] = tested on: Pseudomonas aeruginosa 253
[8] = tested on: Pseudomonas aeruginosa 910
[9] = tested on: Pseudomonas aeruginosa 919
[10] = tested on: Pseudomonas aeruginosa PAO1
[11] = tested on: Bacillus subtilis ATCC 6633
[12] = tested on: Escherichia coli ATCC 10536
[13] = tested on: Escherichia coli DH5alpha
[14] = tested on: Staphylococcus aureus ATCC 9144
Candida albicans C627 = tested on: Candida albicans C627
[15] = tested on: Enterococcus faecium mic80
[16] = tested on: Escherichia coli ESBL 63103
[17] = tested on: Pseudomonas aeruginosa 213
[18] = tested on: Pseudomonas aeruginosa H103
[19] = tested on: Pseudomonas aeruginosa LES400
[20] = tested on: Staphylococcus aureus ATCC 25923
[21] = tested on: Staphylococcus aureus C623
[22] = tested on: Escherichia coli ATCC 25922
[23] = tested on: Pseudomonas aeruginosa ATCC BAA-427
[24] = tested on: Bacillus subtilis CMCC 63501
Candida parapsilosis = tested on: Candida parapsilosis
[25] = tested on: Enterococcus faecalis ATCC 29212
Escherichia coli K-12 = tested on: Escherichia coli K-12
Escherichia coli UB1005 = tested on: Escherichia coli UB1005
[26] = tested on: Pseudomonas aeruginosa ATCC 27853
[27] = tested on: Salmonella enterica subsp. enterica serovar Typhimurium ATCC 14028
[28] = tested on: Salmonella typhimurium ATCC 7731
[29] = tested on: Staphylococcus aureus ATCC 29213
[30] = tested on: Staphylococcus epidermidis ATCC 12228

SMILES: CC[C@H](C)[C@H](NC(=O)[C@H](CS)NC(=O)[C@H](Cc1cnc[nH]1)NC(=O)[C@H](C)NC(=O)[C@H](C)N)C(=O)N[C@@H](CCC(N)=O)C(=O)N[C@@H](CC(C)C)C(=O)NCC(=O)N[C@@H](CCCCN)C(=O)N[C@@H](CCCN=C(N)N)C(N)=O [AAHCIQLGKR]
- MIC [1]: 30 µM (≈ 32.9 µg/mL)
- MIC (Enterococcus faecalis VR): 30 µM (≈ 32.9 µg/mL)
- MIC (Enterococcus faecalis): 30 µM (≈ 32.9 µg/mL)
- MIC (Enterococcus faecium VR): 30 µM (≈ 32.9 µg/mL)
- MIC (Enterococcus faecium): 30 µM (≈ 32.9 µg/mL)
- MIC [2]: 30 µM (≈ 32.9 µg/mL)
- MIC [3]: 30 µM (≈ 32.9 µg/mL)
- MIC [4]: 30 µM (≈ 32.9 µg/mL)
- MIC [5]: 30 µM (≈ 32.9 µg/mL)
- MIC (Staphylococcus aureus MR): 30 µM (≈ 32.9 µg/mL)
- MIC [6]: 30 µM (≈ 32.9 µg/mL)

SMILES: CC[C@H](C)[C@H](NC(=O)[C@H](CCCCN)NC(=O)[C@H](CCCN=C(N)N)NC(=O)[C@H](Cc1c[nH]c2ccccc12)NC(=O)[C@H](Cc1c[nH]c2ccccc12)NC(=O)[C@@H](N)CCCN=C(N)N)C(=O)N[C@@H](Cc1c[nH]c2ccccc12)C(=O)N[C@@H](CCCCN)C(=O)N[C@@H](Cc1c[nH]c2ccccc12)C(N)=O [RWWRKIWKW]
- MIC [7]: 8 µM (≈ 11.6 µg/mL)
- MIC [8]: 8 µM (≈ 11.6 µg/mL)
- MIC [9]: 2.83 µM (≈ 4.08 µg/mL)
- MIC [10]: 2 µM (≈ 2.89 µg/mL)

SMILES: CC[C@H](C)[C@H](NC(=O)CN)C(=O)NCC(=O)N[C@@H](C)C(=O)N[C@H](C(=O)N[C@@H](CC(C)C)C(=O)N[C@@H](CCCCN)C(=O)N[C@H](C(=O)N[C@@H](C)C(=O)N[C@H](C(=O)N[C@H](C(=O)NCC(=O)N[C@@H](CC(C)C)C(=O)N1CCC[C@H]1C(=O)N[C@@H](C)C(=O)N[C@@H](CC(C)C)C(=O)N[C@H](C(=O)N[C@@H](CO)C(=O)N[C@@H](Cc1c[nH]c2ccccc12)C(=O)N[C@H](C(=O)N[C@@H](CCCCN)C(=O)N[C@@H](CCCN=C(N)N)C(=O)N[C@@H](CCCCN)C(=O)N[C@@H](CCCN=C(N)N)C(=O)N[C@@H](CCC(N)=O)C(=O)N[C@@H](CCC(N)=O)C(N)=O)[C@@H](C)CC)[C@@H](C)CC)[C@@H](C)O)[C@@H](C)O)C(C)C)C(C)C [GIGAVLKVATTGLPALISWIKRKRQQ]
- MIC [11]: 2.4 µM (≈ 6.73 µg/mL)
- MIC [12]: 3.2 µM (≈ 8.97 µg/mL)
- MIC [13]: 4.3 µM (≈ 12.1 µg/mL)
- MIC [14]: 3.6 µM (≈ 10.1 µg/mL)

SMILES: CC(C)C[C@H](NC(=O)[C@H](Cc1ccccc1)NC(=O)[C@H](CC(C)C)NC(=O)[C@H](CS)NC(=O)[C@H](Cc1cnc[nH]1)NC(=O)[C@@H](NC(=O)[C@H](C)N)[C@@H](C)O)C(=O)N[C@@H](CCCCN)C(=O)N[C@@H](CCCCN)C(=O)N[C@@H](CCCN=C(N)N)C(N)=O [ATHCLFLKKR]
- MIC [1]: 7.5 µM
- MIC (Enterococcus faecalis VR): 30 µM
- MIC (Enterococcus faecalis): 30 µM
- MIC (Enterococcus faecium VR): 30 µM
- MIC (Enterococcus faecium): 30 µM
- MIC [2]: 15 µM
- MIC [3]: 15 µM
- MIC [4]: 15 µM
- MIC [5]: 15 µM
- MIC (Staphylococcus aureus MR): 15 µM
- MIC [6]: 15 µM

SMILES: NCCCC[C@H](N)C(=O)N[C@@H](Cc1c[nH]c2ccccc12)C(=O)N[C@@H](Cc1c[nH]c2ccccc12)C(=O)N[C@@H](CCCN=C(N)N)C(=O)N[C@@H](Cc1c[nH]c2ccccc12)C(=O)N[C@@H](CCCN=C(N)N)C(=O)N[C@@H](CCCN=C(N)N)C(=O)N[C@@H](Cc1c[nH]c2ccccc12)C(=O)N[C@@H](Cc1c[nH]c2ccccc12)C(=O)O [KWWRWRRWW]
- MIC (Candida albicans C627): 5.18 µM (≈ 8 µg/mL)
- MIC [15]: 20.7 µM (≈ 32 µg/mL)
- MIC [16]: ≥ 82.8 µM
- MIC [17]: ≥ 82.8 µM
- MIC [18]: 20.7 µM (≈ 32 µg/mL)
- MIC [19]: ≥ 41.4 µM
- MIC [20]: 5.18 µM (≈ 8 µg/mL)
- MIC [21]: 5.18 µM (≈ 8 µg/mL)

SMILES: CC[C@H](C)[C@H](NC(=O)[C@H](Cc1c[nH]c2ccccc12)NC(=O)[C@H](Cc1c[nH]c2ccccc12)NC(=O)[C@H](CCCN=C(N)N)NC(=O)[C@H](CCCCN)NC(=O)[C@H](Cc1c[nH]c2ccccc12)NC(=O)[C@H](CC(C)C)NC(=O)[C@@H](N)CCCN=C(N)N)C(=O)N[C@@H](CCCN=C(N)N)C(=O)O [RLWKRWWIR]
- MIC (Candida albicans C627): 11.4 µM (≈ 16 µg/mL)
- MIC [15]: ≥ 45.7 µM
- MIC [16]: ≥ 45.7 µM
- MIC [17]: ≥ 91.4 µM
- MIC [18]: ≥ 91.4 µM
- MIC [19]: ≥ 91.4 µM
- MIC [20]: 91.4 µM (≈ 128 µg/mL)
- MIC [21]: ≥ 45.7 µM

SMILES: CC[C@H](C)[C@H](N)C(=O)N[C@@H](CC(C)C)C(=O)NCC(=O)N[C@@H](CCCCN)C(=O)N[C@H](C(=O)N[C@@H](Cc1c[nH]c2ccccc12)C(=O)N[C@@H](CCCCN)C(=O)NCC(=O)N[C@@H](CCCCN)C(=O)N[C@@H](CCCCN)C(=O)N[C@@H](CO)C(=O)N[C@@H](CC(C)C)C(=O)N[C@@H](Cc1ccccc1)C(N)=O)[C@@H](C)CC [ILGKIWKGKKSLF]
- MIC [11]: 1 µM (≈ 1.52 µg/mL)
- MIC [12]: 1 µM (≈ 1.52 µg/mL)
- MIC [22]: 2 µM (≈ 3.03 µg/mL)
- MIC [23]: 2 µM (≈ 3.03 µg/mL)
- MIC [20]: 1 µM (≈ 1.52 µg/mL)

SMILES: CC[C@H](C)[C@H](NC(=O)[C@H](CCCN=C(N)N)NC(=O)[C@H](CCC(N)=O)NC(=O)[C@@H](NC(=O)[C@@H](NC(=O)[C@H](CCCN=C(N)N)NC(=O)[C@H](CCCCN)NC(=O)[C@@H](N)Cc1ccccc1)[C@@H](C)CC)C(C)C)C(=O)N[C@@H](CCCCN)C(=O)N[C@@H](CC(=O)O)C(=O)N[C@@H](Cc1ccccc1)C(=O)N[C@@H](CC(C)C)C(=O)N[C@@H](CCCN=C(N)N)C(N)=O [FKRIVQRIKDFLR]
- MIC [24]: 16 µM (≈ 27.5 µg/mL)
- MIC [1]: 4 µM (≈ 6.87 µg/mL)
- MIC (Candida parapsilosis): ≥ 116 µM
- MIC [25]: 32 µM (≈ 55 µg/mL)
- MIC [22]: 16 µM (≈ 27.5 µg/mL)
- MIC [13]: ≥ 116 µM
- MIC (Escherichia coli K-12): ≥ 40 µM
- MIC [2]: 16 µM (≈ 27.5 µg/mL)
- MIC (Escherichia coli UB1005): 16 µM (≈ 27.5 µg/mL)
- MIC [26]: 8 µM (≈ 13.7 µg/mL)
- MIC [3]: ≥ 32 µM
- MIC [10]: 16 µM (≈ 27.5 µg/mL)
- MIC [27]: 32 µM (≈ 55 µg/mL)
- MIC [28]: 16 µM (≈ 27.5 µg/mL)
- MIC [4]: 16 µM (≈ 27.5 µg/mL)
- MIC [29]: 16 µM (≈ 27.5 µg/mL)
- MIC [5]: 16 µM (≈ 27.5 µg/mL)
- MIC [30]: 8 µM (≈ 13.7 µg/mL)
- MIC [6]: 16 µM (≈ 27.5 µg/mL)

SMILES: CC[C@H](C)[C@H](NC(=O)[C@@H](N)Cc1ccccc1)C(=O)N[C@@H](CCCCN)C(=O)N[C@@H](Cc1c[nH]c2ccccc12)C(=O)N[C@@H](CCCCN)C(=O)N[C@@H](Cc1ccccc1)C(=O)N[C@@H](CCCN=C(N)N)C(=O)N1CCC[C@H]1C(=O)N[C@@H](Cc1c[nH]c2ccccc12)C(=O)N[C@@H](CCCCN)C(=O)N[C@@H](CCCCN)C(=O)N[C@@H](CCCN=C(N)N)C(=O)N[C@H](C(N)=O)[C@@H](C)O [FIKWKFRPWKKRT]
- MIC [7]: 16 µM (≈ 29.1 µg/mL)
- MIC [8]: 8 µM (≈ 14.6 µg/mL)
- MIC [9]: 22.6 µM (≈ 41.2 µg/mL)
- MIC [10]: 4 µM (≈ 7.28 µg/mL)
